Consider 21 molecules from patent publication US7576094B2, “Spiro derivatives as lipoxygenase inhibitors” (Eli Lilly and Company, priority 2004, dated 2009).

Molecules are shown by their SMILES. Bounds are passed on as bounds.

In experiment [1] the test system is release of the leukotriene LTB4 from a neutrophil cell line (MPRO cell line). Kind of experiment: LTB4-Cell Assay. To be noted: Mus musculus, 1 h, read-out: inhibition of LTB4 with an EC50. The class given is cell-based. The source says:
• This procedure was used for measuring the release of the leukotriene LTB4 from a neutrophil cell line using a competitive ELISA technique. Materials and Equipments Materials for Cell Preparation and Experiment • MPRO cell line (ATCC, Catalog # CRL-11422) • Calcium ionophore (A23187) (Sigma, Catalog # C7522) • Nordihydroguaiaretic acid (NDGA) (BioMol ,Catalog # EI101-0001) • Retinoic Acid (all-trans) (ATRA) (Sigma, Catalog # 95152) • Sterile, tissue-culture treated 96-well plates (Corning, Catalog # 3614) Materials for LTB4 ELISA • Precoated (Mouse Anti-Rabbit IgG) EIA 96 Well Strip Plates (Cayman, Catalog # 400004) • Leukotriene B4 AChE Tracer (Cayman Catalog # 420110) • Leukotriene B4 EIA Antiserum (Cayman Catalog # 420112) • Ellman's Reagent (Cayman Catalog # 400050) • EIA Buffer Concentrate (10×) (Cayman Catalog # 400060) • Wash Buffer Concentrate (400×) (Cayman Catalog # 400062) • Plastic plate covers (Cayman Catalog # 400012) Procedure
A mouse promyelocytic cell line (MPRO) was used in this assay. These cells are committed immature neutrophils that can be differentiated into mature neutrophils by treatment with 10 μM all-trans retinoic acid for 72 hours.
Following 72 hours of differentiation, cells were stimulated with 1 μM of a calcium ionophore (A23187) in the presence or absence of test compound or vehicle for 1 hour at 37° C. After this time, supernatant was removed from the cells and the LTB4 levels were determined following manufacturer's instructions, using a Leukotriene B4 EIA kit from Cayman (Cat # 5201 11). The negative controls were media samples from differentiated but un-stimulated cells. The compounds were screened at 5 concentrations in quadruplicate starting at 10 μM.

For experiment [2], the target named is T1, human recombinant 5-Lipoxygenase (Homo sapiens, UniProt P09917).
T1 sequence (P09917 1-674): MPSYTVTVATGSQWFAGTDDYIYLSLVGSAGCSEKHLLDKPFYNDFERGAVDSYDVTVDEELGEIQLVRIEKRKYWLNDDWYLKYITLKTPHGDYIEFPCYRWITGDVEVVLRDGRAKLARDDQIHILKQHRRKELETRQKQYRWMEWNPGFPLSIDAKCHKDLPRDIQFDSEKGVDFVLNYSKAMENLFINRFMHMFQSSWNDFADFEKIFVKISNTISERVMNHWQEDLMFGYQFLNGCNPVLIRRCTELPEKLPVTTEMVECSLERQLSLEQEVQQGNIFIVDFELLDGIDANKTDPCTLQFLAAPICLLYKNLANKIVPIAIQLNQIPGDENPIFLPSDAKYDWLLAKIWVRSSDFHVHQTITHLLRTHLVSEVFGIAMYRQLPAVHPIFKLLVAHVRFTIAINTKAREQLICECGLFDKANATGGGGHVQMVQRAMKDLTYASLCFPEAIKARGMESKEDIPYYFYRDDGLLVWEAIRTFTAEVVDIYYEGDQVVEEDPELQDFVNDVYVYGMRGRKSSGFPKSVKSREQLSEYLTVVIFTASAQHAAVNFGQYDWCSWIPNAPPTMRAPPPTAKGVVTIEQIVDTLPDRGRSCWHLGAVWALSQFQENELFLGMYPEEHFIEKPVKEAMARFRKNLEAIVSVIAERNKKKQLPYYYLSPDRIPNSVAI
Kind of experiment: 5-Lipoxygenase Enzyme Assay. The note with it: 70 μM arachidonic acid, 10 minute incubation at room temperature, FOX reagent, absorbance at 620 nm; read-out: inhibition of 5-Lipoxygenase with an IC50. The class given is biochemical. An excerpt: This procedure was used for measuring the enzymatic activity of human recombinant 5-Lipoxygenase using a colorimetric method based on the ferric oxidation of xylenol orange.
• 96 well flat bottom microfilter plates (VWR, Catalog # 62402-933 9295) • Lipoxygenase screening assay buffer (Cayman, Catalog # 760710) • Human recombinant 5-Lipoxygenase (Cayman, Catalog # 60402) • Arachidonic Acid (Sigma, Catalog # A3555) • Xylenol orange tetra sodium salt (Aldrich, Catalog # 227854) • Iron (II) sulfate heptahydrate (Sigma, Catalog # F7002) • Sulfuric acid (95-98%) [18 M] • Methanol Procedure
Human recombinant 5-Lipoxygenase (Cayman Cat # 60402) was used in this assay. The test compound and/or vehicle was added to 0.5 μL 5-Lipoxygenase in 50 mM Tris-HCl buffer, pH 7.4. The reaction was initiated by addition of 70 μM arachidonic acid in Tris-HCl buffer, pH 7.4, and terminated after a 10 minute incubation at room temperature by addition of FOX reagent (25 mM sulfuric acid, 100 μM xylenol orange, 100 μM iron (II) sulfate, methanol:water 9:1). The yellow color of acidified xylenol orange was converted to a blue color by the lipid hydroperoxide-mediated oxidation of Fe^2+ ions and the interaction of the resulting Fe^3+ ions with the dye. The complex was allowed to form during a 1 hour incubation at room temperature with shaking. Absorbance of the Fe^3+ complex was then measured at […] using a spectrophotometer.
Negative controls contained enzyme during the incubation step but substrate was not added until after the FOX reagent. Compounds were screened at 5 concentrations in triplicate starting at 10 μM

Experiment [3] relates to LTB4 production in human whole blood. Kind of experiment: Inhibition of LTB4 Production in Blood. It counts as cell-based. To be noted: 1 h, 20 μM A23187, 60 minutes at 37° C., LTB4 in plasma by ELISA, read-out: protection against LTB4 at an EC50. As for the experimental part:
• Human whole blood (Na citrate) (Stanford Blood Center) • A23187, (Sigma, Cat# C-7522) • Leukotriene B4 EIA reagents (Cayman Chemical, Cat # 520111) • BWA4C (Sigma, Cat # B7559) Procedure Preparation of A23187:
A23187 was prepared as a 10 mM stock solution in DMSO (aliquots can be stored at −20° C.). On the day of the assay the stock solution was diluted as follows: 70 μL 10 mM stock added to 1.6 mL plasma to give a working concentration of 0.42 mM.
From a 30 mM stock solution in DMSO, test articles were diluted to a working concentration of 600 μM in PBS (i.e. 10 μL stock solution+490 μL PBS). This is the highest concentration (gives a final testing concentration of 30 μM). From this 600 μM solution test articles were serially diluted 1:3 in PBS to give a dose-response curve. 10 μL of each concentration of test article was then added to 4 wells of a 96-well plate (i.e. testing in quadruplicate). A positive control compound, BWA4C was used in every assay.
Human whole blood was added to the plates containing compounds (190 μL per well) and mixed well. The blood was incubated with compound at 37° C. for 15 minutes. Following this incubation, 10 μL of 0.42 mM A23187 was added to each well except the negative control wells to give a final calcium ionophore concentration of 20 μM. The plates were then incubated at 37° C. for 60 minutes. After the incubation period, plates were centrifuged for 15 min at 2000 g at 4° C. in sealed microplate buckets. Plasma was then removed for quantitation of LTB4 levels by ELISA.
LTB4 levels in the plasma were determined using a commercially available ELISA kit from Cayman Chemicals. The ELISA was run according to the manufacturer's instructions. The LTB4 levels in the vehicle control sample were then compared to those in which the test article had been added. From this a percent inhibition of LTB4 production by each concentration of test article was calculated and the IC50 was determined.
For orientation: An ELISA detects its analyte on a solid surface through an enzyme-linked reagent.

Broadly, the EC50 is the concentration that produces a half-maximal response. As usually defined, the IC50 is the concentration that inhibits the measured activity by half.

As for `Cc1c(C)c2c(c(C)c1OCc1ccc3ccccc3n1)CCC1(CCC1)O2` [2-{[(5,7,8-trimethyl-3,4-dihydrospiro[chromene-2,1′-cyclobutan]-6-yl)oxy]methyl}quinoline], in experiment [1], the EC50 was < 5 µM.

As to `Cc1c(C)c2c(c(C)c1O)C(C#N)=CC1(CCC1)O2` [6-hydroxy-5,7,8-trimethylspiro[chromene-2,1′-cyclobutane]-4-carbonitrile], the concentration giving a half-maximal response (EC50) in experiment [1] was < 5 µM.

`Cc1c(O)c(C(C)(C)C)cc2c1C(O)CC1(CCC1)O2` (centres unmarked) [7-tert-butyl-5-methylspiro[chroman-2,1′-cyclobutane]-4,6-diol]: in experiment [1], the EC50 was < 5 µM.

As for `Cc1c(C)c2c(c(C)c1O)C(=O)CC1(CCC1)S2` [6′-hydroxy-5′,7′,8′-trimethylspiro[cyclobutane-1,2′-thiochromen]-4′(3′H)-one], the half-maximal effective concentration (EC50) in experiment [1] was < 5 µM. Also, the 50% inhibitory concentration (IC50) in experiment [2] is < 0.3 µM.

With `CCO/N=C1\CC2(CCC2)Oc2cc(CC)c(O)c(CC)c21` [5,7-diethyl-6-hydroxyspiro[chromene-2,1′-cyclobutan]-4(3H)-one O-ethyloxime], the concentration for a half-maximal effect (EC50) in experiment [1] was < 5 µM. In addition, the IC50 in experiment [2] was < 0.3 µM.

As for `Cc1c2c(c(C)c(Cl)c1OC(=O)CN(C)C)OC1(CCC1)CC2` [7-chloro-5,8-dimethyl-3,4-dihydrospiro[chromene-2,1′-cyclobutan]-6-yl (dimethylamino)acetate], in experiment [1], the EC50 was < 5 µM. In addition, the half-inhibitory concentration (IC50) in experiment [2] was < 0.3 µM.

In the case of `Cc1c(OC(=O)CN(C)C)cc2c(c1C)OC1(CCC1)CC2` [7,8-dimethyl-3,4-dihydrospiro[chromene-2,1′-cyclobutan]-6-yl (dimethylamino)acetate], the EC50 in experiment [1] was < 5 µM.

With `COC(=O)C1CC(c2c(C)c(O)c(C)c3c2OC2(CCC2)CC3)=NO1` (centres unmarked) [methyl 3-(6-hydroxy-5,7-dimethyl-3,4-dihydrospiro[chromene-2,1′-cyclobutan]-8-yl)-4,5-dihydroisoxazole-5-carboxylate], the EC50 in experiment [1] is < 5 µM. The IC50 in experiment [2] was < 0.3 µM.

Regarding `Cc1cc2c(c(C)c1O)C(NS(=O)(=O)c1ccccc1)CC1(CCC1)O2` (centres unmarked) [N-(6-hydroxy-5,7-dimethyl-3,4-dihydrospiro[chromene-2,1′-cyclobutan]-4-yl)benzenesulfonamide], in experiment [1], the half-maximal effective concentration (EC50) is < 5 µM. Further, in experiment [2], the IC50 was < 0.3 µM.

`Cc1cc(O)c(C(C)C)c2c1OC1(CCC1)CC2` [5-isopropyl-8-methyl-3,4-dihydrospiro[chromene-2,1′-cyclobutan]-6-ol]: the concentration giving a half-maximal response (EC50) in experiment [1] was < 5 µM.

On to `CCCCCCNC1c2c(C)c(O)c(C)c(C)c2OCC12CCC2` (centres unmarked) [4-(hexylamino)-5,7,8-trimethylspiro[chroman-3,1′-cyclobutan]-6-ol], for which the half-maximal effective concentration (EC50) in experiment [1] was < 5 µM. Moreover, the IC50 in experiment [2] is < 0.3 µM.

Regarding `CCONC1CC2(CCC2)Oc2cc(C)c(O)c(C)c21` (centres unmarked) [4-(ethoxyamino)-5,7-dimethyl-3,4-dihydrospiro[chromene-2,1′-cyclobutan]-6-ol], in experiment [1], the concentration for a half-maximal effect (EC50) is < 5 µM. Moreover, in experiment [2], the half-maximal inhibitory concentration (IC50) was < 0.3 µM.

Consider `Cc1c(C)c2c(c(C)c1O)C(O)CC1(CCC1)O2` (centres unmarked) [5,7,8-trimethyl-3,4-dihydrospiro[chromene-2,1′-cyclobutane]-4,6-diol], for which the EC50 in experiment [1] was < 5 µM.

`CCO/N=C1\CC2(CCC2)Oc2c(C)c(C)c(O)c(CC)c21` [5-ethyl-6-hydroxy-7,8-dimethylspiro[chromene-2,1′-cyclobutan]-4(3H)-one O-ethyloxime]: the concentration giving a half-maximal response (EC50) in experiment [1] is < 5 µM. Moreover, the IC50 in experiment [2] was < 0.3 µM.

Regarding `Cc1c(O)cc2c(c1C)N(CCCN1C(=O)c3ccccc3C1=O)CC1(CC1)C2` [2-(3-(6′-hydroxy-7′,8′-dimethyl-2′,4′-dihydro-1′H-spiro[cyclopropane-1,3′-quinoline]-1′-yl)propyl)isoindoline-1,3-dione], the half-maximal effective concentration (EC50) in experiment [1] is < 5 µM.

On to `Cc1cc(O)c(Cl)c2c1OC1(CCC1)CC2` [5-chloro-8-methyl-3,4-dihydrospiro[chromene-2,1′-cyclobutan]-6-ol], for which, in experiment [1], the EC50 is < 5 µM.

On to `CONCC1=Cc2c(cc(C)c(OC(=O)C(C)(C)C)c2C)OC12CCC2` [3-[(methoxyamino)methyl]-5,7-dimethylspiro[chromene-2,1′-cyclobutan]-6-yl pivalate], for which the EC50 in experiment [1] is < 5 µM.

`CCc1cc2c(c(CC)c1O)CCC1(CCC1)O2` [5,7-diethyl-3,4-dihydrospiro[chromene-2,1′-cyclobutan]-6-ol]: the EC50 in experiment [3] is < 10 µM. In experiment [2], the IC50 was < 0.3 µM.

With `Cc1c(O)cc2c(c1C)N(c1ccc(N(C)C)nc1)CC1(CCC1)C2` [1′-(6-(dimethylamino)pyridin-3-yl)-7′,8′-dimethyl-2′,4′-dihydro-1′H-spiro[cyclobutane-1,3′-quinolin]-6′-ol], the half-maximal effective concentration (EC50) in experiment [3] was < 10 µM. Further, the IC50 in experiment [2] is < 0.3 µM.

As for `Cc1c(O)c(C(C)C)cc2c1[C@@H](O)CC1(CCC1)O2` [(S)-7-isopropyl-5-methylspiro[chroman-2,1′-cyclobutane]-4,6-diol], the EC50 in experiment [3] was < 10 µM. In addition, in experiment [2], the IC50 is < 0.3 µM.

On to `CON(C)C1CC2(CCC2)Oc2c(C)c(C)c(O)c(C)c21` (centres unmarked) [4-[methoxy(methyl)amino]-5,7,8-trimethyl-3,4-dihydrospiro[chromene-2,1′-cyclobutan]-6-ol], for which the concentration for a half-maximal effect (EC50) in experiment [1] was < 5 µM.
